Results from patent publication US9562044B2, “2-acylaminothiazole derivative or salt thereof” (ASTELLAS PHARMA INC., priority 2013, dated 2017).
Structures can show the parent of a compound that is named as a salt.

target: T1, human c-Mpl receptor (Homo sapiens, UniProt P40238); test: Human c-Mpl-introduced Ba/F3 cell proliferative activity; format: cell-based; details: concentration showing 30% proliferation; 100% = positive control at 1 μM
T1 construct: expressed in transfected cells
T1 sequence (P40238 26-635): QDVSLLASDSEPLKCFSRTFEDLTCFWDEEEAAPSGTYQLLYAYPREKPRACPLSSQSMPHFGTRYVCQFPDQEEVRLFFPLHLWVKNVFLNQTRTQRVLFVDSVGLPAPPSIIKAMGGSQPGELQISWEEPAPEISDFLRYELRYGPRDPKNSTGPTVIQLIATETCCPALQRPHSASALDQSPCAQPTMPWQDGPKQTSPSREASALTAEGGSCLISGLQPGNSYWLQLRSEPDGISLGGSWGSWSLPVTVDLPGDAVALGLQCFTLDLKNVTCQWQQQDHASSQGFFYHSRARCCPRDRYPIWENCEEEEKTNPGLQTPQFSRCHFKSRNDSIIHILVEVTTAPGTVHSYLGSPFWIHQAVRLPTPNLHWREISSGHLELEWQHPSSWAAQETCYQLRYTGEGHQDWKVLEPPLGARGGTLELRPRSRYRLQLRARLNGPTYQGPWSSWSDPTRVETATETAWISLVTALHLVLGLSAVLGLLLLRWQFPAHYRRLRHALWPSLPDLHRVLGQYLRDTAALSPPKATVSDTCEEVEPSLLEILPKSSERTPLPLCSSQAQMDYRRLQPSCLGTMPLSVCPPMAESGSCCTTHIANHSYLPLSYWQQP
Method: Evaluation of Human c-Mpl-Introduced Ba/F3 Cell Proliferative Activity
The human c-Mpl-introduced Ba/F3 cell proliferative activity was measured by the following method.
As a positive control, 1-(5-{[4-(4-chloro-2-thienyl)-5-{[(2R)-2-methylpyrrolidin-1-yl]methyl}-1,3-thiazol-2-yl]carbamoyl}-3-fluoropyridin-2-yl)piperidine-4-carboxylic acid hydrochloride, which is disclosed as Example 315 in Patent Document 1 and represented by the formula A1, was used. It is known that the compound has a good human c-Mpl-introduced Ba/F3 cell proliferative activity as disclosed in Table 1 of Patent Document 1.
a) Construction of Human c-Mpl Receptor Expression Vector
A human c-mpl receptor gene (GenBank Accession No. M90102.1) was introduced into an expression vector pEF-BOS (Nucleic Acids Res. 18, 5322, 1990).
b) Construction of Cell Stably Expressing Human c-Mpl Receptor
A human c-Mpl receptor expression vector was introduced into a Ba/F3 cell (RIKEN BRC: RCB0805). For the introduction, an electroporation method was used. pEF-BOS-c-mpl (10 μg), pSV2bsr (1 μg, Kaken Pharmaceutical Co., Ltd.) and 1×10^7 Ba/F3 cells were put into a cuvette having a gap width of 0.4 cm, and electroporated under the conditions of 1.5 kV (25 μF) by a Gene Pulser (registered trademark) (BioRad). The cells were cultured in an RPMI-1640 culture medium containing 0.5% WEHI conditioned media (BD Biosciences) and 10% fetal bovine serum for 3 days, and then cultured in an RPMI-1640 culture medium, to which 10 μg/mL blasticidin had been further added, for 30 days to acquire a drug-resistant clone.
c) Measurement of Cell Proliferative Activity
The cells obtained in b) above was cultured in an RPMI-1640 culture medium containing 0.5% WEHI conditioned media, 10% fetal bovine serum, and used. On the day before the experiment, test substances (final concentration of 100 nM to 10 μM) which had been dissolved in a culture medium for assay (RPMI-1640 culture medium containing 10% fetal bovine serum) were added to a 384-well plate (Lot No. 781185, Greiner Bio-One). The cells in the culture medium that had been replaced with a culture medium for assay were dispensed into a 384-well plate, to which the test substances had been added in advance, to 1×10^4 cells/well, and cultured at 37° C. and 5% CO2 overnight. On the experiment day, a solution of a Cell Counting Kit (Dojindo Laboratories) was added to each well of the 384-well plate and cultured at 37° C. and 5% CO2 for about 5 hours. Thereafter, the absorbance (absorption wavelength of 450 nm) of each well was measured using Safire^2™ (TECAN) and used as the index of the number of cells. Further, as a negative control, a well in which the test substance had been not added was prepared.
The absorbance of the well without the test substance was set to 0%, and the absorbance in the case where the positive control was added at a final concentration of 1 μM was set to 100%. From the absorbance in the case where the test substance had been added, a cell proliferation rate (%) was calculated. From the obtained results, the test substance concentration showing 30% proliferation was calculated as an EC30 value by a logistic regression method.

Q: For `CC[C@@H]1CCCN1Cc1sc(NC(=O)c2cnc(N3CCC(C(=O)O)CC3)cn2)nc1-c1cc(F)cc(C(F)(F)F)c1` [Example 115], which “Test Example 2 EC30” value is on record?
A: Its value is over 10 µM.

Q: For `C[C@@H]1CCCN1Cc1sc(NC(=O)c2cnc(N3CCC(C(=O)O)CC3)cn2)nc1-c1cc(Cl)cs1` [Example 4, 1-(5-{[4-(4-chloro-2-thienyl)-5-{[(2R)-2-methylpyrrolidin-1-yl]methyl}-1,3-thiazol-2-yl]carbamoyl}pyrazin-2-yl)piperidine-4-carboxylic acid dihydrochloride], which “Test Example 2 EC30” value is on record?
A: The value was 0.35 µM.

Q: How did the “Test Example 2 EC30” value turn out when `CC[C@@H]1CCCN1Cc1sc(NC(=O)c2cnc(N3CCC(C(=O)O)CC3)cn2)nc1-c1ccc(OC)c(C(F)(F)F)c1` [Example 156] was run?
A: The value was over 10 µM.
